The text below walks through data of ChEMBL document CHEMBL1201862, “PubChem BioAssay data set” (2004).

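Protocol summary: plate cells (96-well), add compound at 5 concentrations, incubate 48 h, interpolate endpoints linearly. GI50 marks 50% less growth.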 Calls of active or inactive are those of the source. Rule as the data show it: active = GI50 up to about 1.1 µM and inactive = higher. Where a SMILES comes first, the peptide text is derived from it. The star is where a group is joined. Boc = CC(C)(C)OC(=O)*

Among the test systems are TK-10; HCT-15; NCI-H226; SW-620; U-251; MDA-MB-435; HCT-116; HOP-62; OVCAR-4; SN12C; OVCAR-5; UACC-257; SF-295; NCI-H460; A498; T47D; UACC-62; OVCAR-3; SK-OV-3.
Common to all, as to test: growth of human tumour cells (NCI), 48 h

For the molecule `N#C[BH2-][n+]1ccc(C(=O)NNC(c2ccccc2)C(F)(F)F)cc1` (stereo not drawn), the GI50 with TK-10 is > 100 µM (inactive); with HCT-15, > 100 µM; with NCI-H226, > 100 µM (inactive); in the assay on SW-620 it was > 100 µM (inactive); in the assay on U-251, > 100 µM (inactive); in the assay with MDA-MB-435, > 100 µM (inactive). Besides, the GI50 in the assay with HCT-116 is > 100 µM (inactive); with HOP-62, 97.7 µM (inactive); with OVCAR-4 it was > 100 µM (inactive); in the assay on SN12C, > 100 µM (inactive); with OVCAR-5, > 100 µM (inactive); in the assay on UACC-257 it was > 100 µM (inactive). Moreover, the GI50 in the assay on SF-295 and in the assay with NCI-H460 was > 100 µM (inactive) throughout.
In the case of `COC(=O)C(Cc1c[nH]c2ccccc12)NC(=O)C(Cc1c[nH]c2ccccc12)NC(=O)C(Cc1c[nH]c2ccccc12)NC(=O)OC(C)(C)C` (stereo not drawn) (Boc-Trp-Trp-Trp-OMe; configuration not given here), the GI50 with TK-10 was 25.5 µM (inactive); in the assay with HCT-15, 19.5 µM; in the assay with NCI-H226 it was 16.5 µM (inactive); with SW-620, 21.5 µM (inactive); in the assay on U-251 it was 18.5 µM (inactive); with HCT-116 it was 16.2 µM (inactive). In addition, the GI50 was 17.9 µM (inactive) in the assay with HOP-62; 53.5 µM (inactive) in the assay on A498; 4.67 µM (inactive) in the assay on T47D; 18.9 µM (inactive) in the assay with SN12C; 17.9 µM (inactive) with OVCAR-5; 32.7 µM (inactive) in the assay with UACC-257. Also, the GI50 was 18.8 µM (inactive) in the assay with UACC-62 and 20.2 µM (inactive) in the assay on NCI-H460.
As for `O=c1[nH]nc(Cc2ccccc2)n1-n1cnnc1`, the GI50 in the assay with TK-10 is > 100 µM (inactive); with HCT-15, > 100 µM; in the assay with OVCAR-3 it was > 100 µM (inactive); in the assay with SW-620, > 100 µM (inactive); in the assay on U-251 it was > 100 µM (inactive); in the assay on MDA-MB-435 it was > 100 µM (inactive). Besides, the GI50 with HCT-116, with HOP-62, with SK-OV-3, in the assay on OVCAR-4, in the assay on SN12C and in the assay with OVCAR-5 was > 100 µM (inactive) throughout. Besides, the GI50 with UACC-257, in the assay with UACC-62 and with SF-295 was > 100 µM (inactive) in each case.
Take `N#CN1CCC=C(c2cc3ccccc3[nH]2)C1`: the GI50 was > 448 µM (inactive) in the assay on TK-10; 370 µM in the assay with HCT-15; 92.5 µM (inactive) in the assay on OVCAR-3; > 448 µM (inactive) in the assay with NCI-H226; 414 µM (inactive) in the assay with SW-620; 434 µM (inactive) in the assay on U-251. In addition, the GI50 is 285 µM (inactive) in the assay with HCT-116; > 448 µM (inactive) in the assay with HOP-62; > 448 µM (inactive) in the assay on SK-OV-3; 356 µM (inactive) in the assay on SN12C; > 448 µM (inactive) in the assay with OVCAR-5; 199 µM (inactive) in the assay with UACC-257. Moreover, the values for the GI50 in the assay with UACC-62, in the assay with SF-295 and in the assay on NCI-H460 were 201 µM (inactive), 313 µM (inactive) and > 448 µM (inactive), respectively.
For the molecule `CCOc1ccc(/N=N/c2ccc(-c3ccc(/N=N/c4c(O)ccc5cc(S(=O)(=O)O)cc(S(=O)(=O)O)c45)cc3)cc2)cc1`, the GI50 was > 100 µM (inactive) with TK-10; 86.5 µM in the assay with HCT-15; > 100 µM (inactive) in the assay with OVCAR-3; > 100 µM (inactive) in the assay with NCI-H226; > 100 µM (inactive) in the assay on SW-620; > 100 µM (inactive) with U-251. The GI50 in the assay on MDA-MB-435, in the assay on HCT-116, with HOP-62, in the assay with SK-OV-3, in the assay on OVCAR-4 and in the assay on OVCAR-5 was > 100 µM (inactive) in each case. For the same molecule, the GI50 in the assay on UACC-257, in the assay with UACC-62, with SF-295 and with NCI-H460 was > 100 µM (inactive) each time.
For the molecule `O=C(Cn1cc(-c2ccccc2)nn1)NC1CCCC1`, the GI50 was > 100 µM (inactive) in the assay with TK-10; > 100 µM with HCT-15; > 100 µM (inactive) with NCI-H226; > 100 µM (inactive) in the assay with SW-620; > 100 µM (inactive) in the assay on U-251; > 100 µM (inactive) in the assay with MDA-MB-435. Also, the GI50 with HCT-116, with HOP-62, in the assay on OVCAR-4, in the assay on SN12C, in the assay on OVCAR-5 and in the assay on UACC-257 was > 100 µM (inactive) each time. Further, the GI50 in the assay with SF-295 and with NCI-H460 was > 100 µM (inactive) in each case.
For the molecule `NC(CCc1nc(-c2ccc(Cl)cc2)cs1)C(=O)O` (stereo not drawn), the GI50 with TK-10 is > 100 µM (inactive); in the assay on HCT-15, 74 µM; in the assay with OVCAR-3, > 100 µM (inactive); in the assay on NCI-H226, > 100 µM (inactive); with SW-620, > 100 µM (inactive); in the assay with U-251, > 100 µM (inactive). Further, the GI50 with HCT-116, in the assay with HOP-62, in the assay on SK-OV-3, with OVCAR-4, with A498 and with SN12C was > 100 µM (inactive) throughout. Further, the GI50 in the assay on OVCAR-5, in the assay with UACC-257, in the assay on UACC-62, in the assay with SF-295 and in the assay with NCI-H460 was > 100 µM (inactive) each time.
Turning to `Cc1ccc(Oc2cc(C)ccc2P(=O)(O)O)cc1`, the GI50 in the assay with TK-10 was > 100 µM (inactive); in the assay on HCT-15 it was > 100 µM; with OVCAR-3, > 100 µM (inactive); in the assay with NCI-H226 it was > 100 µM (inactive); in the assay on SW-620, > 100 µM (inactive); with MDA-MB-435 it was > 100 µM (inactive). Further, the GI50 in the assay on HCT-116, in the assay on HOP-62, in the assay with SK-OV-3, in the assay with SN12C, in the assay on UACC-257 and with UACC-62 was > 100 µM (inactive) throughout. Also, the GI50 in the assay with SF-295 is > 100 µM (inactive).
Regarding `CC1(C)CC(=O)C(=CNC(N)=S)C(=O)C1`, the GI50 in the assay on TK-10 is > 100 µM (inactive); in the assay with HCT-15, > 100 µM; with OVCAR-3, > 100 µM (inactive); in the assay with NCI-H226 it was > 100 µM (inactive); with SW-620 it was > 100 µM (inactive); in the assay with U-251, > 100 µM (inactive). The GI50 in the assay on MDA-MB-435, in the assay with HCT-116, in the assay with HOP-62, with SK-OV-3, in the assay on OVCAR-4 and with SN12C was > 100 µM (inactive) throughout. Moreover, the GI50 in the assay on OVCAR-5, with UACC-257, in the assay with UACC-62, in the assay on SF-295 and in the assay with NCI-H460 was > 100 µM (inactive) each time.
With `CC(=O)CCn1c(=S)sc2ccccc21`, the GI50 is > 100 µM (inactive) in the assay on TK-10; > 100 µM with HCT-15; > 100 µM (inactive) in the assay on OVCAR-3; > 100 µM (inactive) in the assay on NCI-H226; > 100 µM (inactive) in the assay with SW-620; > 100 µM (inactive) with U-251. Further, the GI50 with MDA-MB-435 is > 100 µM (inactive); in the assay with HCT-116, > 100 µM (inactive); with HOP-62, > 100 µM (inactive); with SK-OV-3, 86.9 µM (inactive); in the assay with OVCAR-4 it was > 100 µM (inactive); with SN12C it was > 100 µM (inactive). The GI50 in the assay with OVCAR-5, in the assay on UACC-257, with UACC-62, in the assay with SF-295 and in the assay with NCI-H460 was > 100 µM (inactive) in each case.
As for `COc1cc(C)c2c(c1C)OC(=O)c1c(C)c(Cl)c(O)c(C=O)c1O2`, the GI50 in the assay on TK-10 was 29 µM (inactive); with OVCAR-3 it was 1.63 µM (inactive); with NCI-H226 it was 23.2 µM (inactive); with SW-620, 31.8 µM (inactive); in the assay with U-251, 6.41 µM (inactive); in the assay on HCT-116 it was 20.8 µM (inactive). Besides, the GI50 in the assay on HOP-62 is 20.3 µM (inactive); with SK-OV-3, 23.4 µM (inactive); in the assay with A498 it was 13.9 µM (inactive); in the assay with SN12C it was 21.8 µM (inactive); in the assay on OVCAR-5, 27.7 µM (inactive); in the assay on UACC-257 it was 20 µM (inactive). Besides, the GI50 with UACC-62 is 15.7 µM (inactive); in the assay with SF-295 it was > 10 µM (inactive); in the assay with NCI-H460, 17.4 µM (inactive).
Consider `Nc1nc(Cl)c(CO)c(NCC2(CO)CCC2)n1`, for which the GI50 is > 100 µM (inactive) with TK-10; > 100 µM in the assay with HCT-15; > 100 µM (inactive) with OVCAR-3; > 100 µM (inactive) with NCI-H226; > 100 µM (inactive) in the assay on SW-620; > 100 µM (inactive) with U-251. In addition, the GI50 in the assay with MDA-MB-435, in the assay with HCT-116, in the assay with HOP-62, in the assay with OVCAR-4, with A498 and with SN12C was > 100 µM (inactive) throughout. Also, the GI50 in the assay with OVCAR-5, with UACC-257, in the assay with SF-295 and in the assay on NCI-H460 was > 100 µM (inactive) in each case.
`Clc1ccccc1NN(Cc1ccncc1)c1ccccc1Cl`: the GI50 is 16.3 µM with HCT-15; 13.5 µM (inactive) with OVCAR-3; 21 µM (inactive) in the assay on NCI-H226; 16.9 µM (inactive) in the assay with SW-620; 13.5 µM (inactive) in the assay with U-251; 15.2 µM (inactive) in the assay with MDA-MB-435. The GI50 is 13 µM (inactive) with HCT-116; 15.8 µM (inactive) in the assay on HOP-62; 28.1 µM (inactive) in the assay with SK-OV-3; 11.1 µM (inactive) in the assay on OVCAR-4; 19.1 µM (inactive) in the assay with A498; 13.6 µM (inactive) in the assay on SN12C. Moreover, the GI50 in the assay with OVCAR-5 was 17.5 µM (inactive); with UACC-62 it was 13.2 µM (inactive); with SF-295, 16.7 µM (inactive).
